Active and inactive are the calls of the source. No cut-off for these calls is given here.
Experiments:
[1] = target: T1, Nuclear receptor subfamily 4immunitygroup A member 1 (Homo sapiens, UniProt P22736); test: Binding affinity to Nur77 (unknown origin)
[2] = target: T1, Nuclear receptor subfamily 4immunitygroup A member 1; test: Binding affinity to Nur77-LBD (unknown origin)
[3] = Cytotoxicity against human L02 cells assessed as cell viability at 10 uM incubated for 48 hrs by MTT assay; assay type: toxicity, cell-based; conditions: read-out: Activity
[4] = system: HeLa; test: Antiproliferative activity against human HeLa cells assessed as cell viability at 10 uM incubated for 48 hrs by MTT assay; assay type: functional; conditions: read-out: Activity
[5] = system: HepG2; test: Antiproliferative activity against human HepG2 cells assessed as cell viability at 10 uM incubated for 48 hrs by MTT assay; assay type: functional; conditions: read-out: Activity
[6] = Selectivity index, ratio of IC50 for human L02 cells to IC50 for human HeLa cells by MTT assay; assay type: toxicity; conditions: L02 cells versus HeLa cells, read-out: Ratio IC50
[7] = Cytotoxicity against human L02 cells assessed as reduction in cell viability incubated for 48 hrs by MTT assay; assay type: toxicity, cell-based
[8] = Toxicity in Zebra fish AB embryo assessed as mortality rate at 0.5 uM incubated for 72 hrs; parameters: species or system Danio rerio; conditions: zebrafish, read-out: Activity
[9] = Selectivity index, ratio of IC50 for human L02 cells to IC50 for human SMMC-7721 cells by MTT assay; assay type: toxicity; conditions: L02 cells versus SMMC-7721 cells, read-out: Ratio IC50
[10] = Toxicity in Zebra fish AB embryo assessed as mortality rate at 1 uM incubated for 24 hrs; parameters: species or system Danio rerio; conditions: zebrafish, read-out: Activity
[11] = system: A549; test: Antiproliferative activity against human A549 cells assessed as reduction in cell viability incubated for 48 hrs by MTT assay; assay type: functional, cell-based; conditions: A549, 48 h
[12] = Selectivity index, ratio of IC50 for human L02 cells to IC50 for human MDA-MB-231 cells by MTT assay; assay type: toxicity; conditions: L02 cells versus MDA-MB-231 cells, read-out: Ratio IC50
[13] = Selectivity index, ratio of IC50 for human L02 cells to IC50 for human Huh-7 cells by MTT assay; assay type: toxicity; conditions: L02 cells versus Huh-7 cells, read-out: Ratio IC50
[14] = system: Huh-7; test: Antiproliferative activity against human Huh-7 cells assessed as reduction in cell viability incubated for 48 hrs by MTT assay; assay type: functional, cell-based; conditions: Huh-7, 48 h
[15] = Toxicity in Zebra fish AB embryo assessed as mortality rate at 0.5 uM incubated for 24 hrs; parameters: species or system Danio rerio; conditions: zebrafish, read-out: Activity
[16] = system: MDA-MB-231; test: Antiproliferative activity against human MDA-MB-231 cells assessed as reduction in cell viability incubated for 48 hrs by MTT assay; assay type: functional, cell-based; conditions: MDA-MB-231, 48 h
[17] = Toxicity in Zebra fish AB embryo assessed as mortality rate at 1 uM incubated for 72 hrs; parameters: species or system Danio rerio; conditions: zebrafish, read-out: Activity
[18] = system: HeLa; test: Antiproliferative activity against human HeLa cells assessed as reduction in cell viability incubated for 48 hrs by MTT assay; assay type: functional, cell-based
[19] = Selectivity index, ratio of IC50 for human L02 cells to IC50 for human A549 cells by MTT assay; assay type: toxicity; conditions: L02 cells versus A549 cells, read-out: Ratio IC50
[20] = Selectivity index, ratio of IC50 for human L02 cells to IC50 for human HepG2 cells by MTT assay; assay type: toxicity; conditions: L02 cells versus HepG2 cells, read-out: Ratio IC50
[21] = system: HepG2; test: Antiproliferative activity against human HepG2 cells assessed as reduction in cell viability incubated for 48 hrs by MTT assay; assay type: functional, cell-based; conditions: HepG2, 48 h
[22] = target: T1, Nuclear receptor subfamily 4immunitygroup A member 1; test: Binding affinity to pBind-Nur77-LBD (unknown origin) transfected in HEK293T cells co-transfected with pG5-Luc assessed as inhibition of Nur77 transcriptional activity by measuring inhibition of Nur77-driven luciferase activity at 2 uM incubated for 12 hrs by luciferase reporter gene assay; assay type: cell-based; conditions: filed as modulator
[23] = system: SMMC-7721; test: Antiproliferative activity against human SMMC-7721 cells assessed as reduction in cell viability incubated for 48 hrs by MTT assay; assay type: functional, cell-based; conditions: SMMC-7721, 48 h

T1 sequence (P22736 whole entry, the tested form may be a part): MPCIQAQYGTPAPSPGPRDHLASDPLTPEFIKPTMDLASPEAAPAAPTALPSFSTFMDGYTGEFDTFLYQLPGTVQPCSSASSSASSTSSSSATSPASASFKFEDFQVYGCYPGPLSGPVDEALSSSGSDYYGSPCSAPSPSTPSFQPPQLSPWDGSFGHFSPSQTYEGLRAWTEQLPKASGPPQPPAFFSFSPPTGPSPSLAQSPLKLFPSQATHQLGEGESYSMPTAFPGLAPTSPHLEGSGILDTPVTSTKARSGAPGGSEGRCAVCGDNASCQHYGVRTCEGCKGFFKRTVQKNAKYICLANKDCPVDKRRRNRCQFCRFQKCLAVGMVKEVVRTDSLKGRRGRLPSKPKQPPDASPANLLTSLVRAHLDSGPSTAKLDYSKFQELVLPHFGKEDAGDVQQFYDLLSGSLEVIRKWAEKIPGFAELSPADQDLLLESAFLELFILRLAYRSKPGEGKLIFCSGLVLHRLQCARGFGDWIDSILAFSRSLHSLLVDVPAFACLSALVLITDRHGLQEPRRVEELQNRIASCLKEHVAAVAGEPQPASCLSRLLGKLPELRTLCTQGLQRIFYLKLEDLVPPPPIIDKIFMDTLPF

Row | SMILES | viability at 48 h, 10 µM [3] [%] | viability at 10 µM [4] [%] | viability at 10 µM [5] [%] | further results
1 | O=C(N/N=C/c1ccncc1)c1cc2cc(Nc3ccnc4ccccc34)ccc2[nH]1 |  |  |  | Kd [1]: 1.17 µM
2 | COc1ccc2ccccc2c1/C=N/NC(=O)c1cc2cc(Nc3cc(C)nc4c(OC)cccc34)ccc2[nH]1 |  |  |  | Kd [2]: 2.25 µM
3 | Cc1ccc(NC(=O)c2cc3cc(Nc4nccc(-c5cccnc5)n4)ccc3[nH]2)cc1Nc1nccc(-c2cccnc2)n1 | 79.6 | 95.9 | 86.5 | 
4 | COc1cccc(NC(=O)c2cc3cc(Nc4nccc(-c5cccnc5)n4)ccc3[nH]2)c1 | 68.6 | 30.2 | 55.2 | 
5 | O=C(c1cc2cc(Nc3nccc(-c4cccnc4)n3)ccc2[nH]1)N1CCOCC1 | 62.3 | 36.8 | 78.2 | 
6 | Nc1ccc(Cl)cc1NC(=O)c1cc2cc(Nc3nccc(-c4cccnc4)n3)ccc2[nH]1 | 62.3 | 89.5 | 97.7 | 
7 | O=C(Nc1ccccc1)c1cc2cc(Nc3nccc(-c4cccnc4)n3)ccc2[nH]1 | 70.9 | 46.4 | 84.4 | 
8 | O=C(Nc1ccc(F)c(F)c1F)c1cc2cc(Nc3nccc(-c4cccnc4)n3)ccc2[nH]1 | 109 | 99.8 | 114 | 
9 | Cc1ccc(NC(=O)c2cc3cc(Nc4nccc(-c5cccnc5)n4)ccc3[nH]2)c(C)c1 | 48.3 | 38.3 | 59.8 | 
10 | Cc1ccccc1NC(=O)c1cc2cc(Nc3nccc(-c4cccnc4)n3)ccc2[nH]1 | 84.1 | 35.4 | 90.4 | 
11 | O=C(NCCN1CCCCC1)c1cc2cc(Nc3nccc(-c4cccnc4)n3)ccc2[nH]1 | 59.1 | 24.9 | 53.7 | 
12 | Cc1ccc(NC(=O)c2cc3cc(Nc4nccc(-c5cccnc5)n4)ccc3[nH]2)cc1C | 55.8 | 43.4 | 69.9 | 
13 | CCN(CC)CCCNC(=O)c1cc2cc(Nc3nccc(-c4cccnc4)n3)ccc2[nH]1 | 82.6 | 39.4 | 67.8 | 
14 | O=C(NC12CC3CC(CC(C3)C1)C2)c1cc2cc(Nc3nccc(-c4cccnc4)n3)ccc2[nH]1 | 81.3 | 124 | 83.4 | 
15 | O=C(NCc1ccccc1)c1cc2cc(Nc3nccc(-c4cccnc4)n3)ccc2[nH]1 | 94.8 | 82 | 113 | 
16 | O=C(Nc1cncnc1)c1cc2cc(Nc3nccc(-c4cccnc4)n3)ccc2[nH]1 | 76.2 | 108 | 81.6 | 
17 | O=C(NCc1cccc(F)c1)c1cc2cc(Nc3nccc(-c4cccnc4)n3)ccc2[nH]1 | 71.1 | 80 | 82.5 | 
18 | CC1=C(O)C(=O)C=C2C1=CC=C1[C@@]2(C)CC[C@@]2(C)[C@@H]3C[C@](C)(C(=O)O)CC[C@]3(C)CC[C@]12C [CELASTROL] | 13 | 49.2 | 18.7 | selectivity ratio [6]: 0.87; IC50 at 48 h [7]: 1.12 µM; mortality at 72 h, 0.5 µM [8]: 94%; selectivity ratio [9]: 0.19; mortality at 24 h, 1 µM [10]: 100%; IC50 [11]: 4.99 µM; selectivity ratio [12]: 1.04; selectivity ratio [13]: 0.25; IC50 [14]: 4.45 µM; mortality at 24 h, 0.5 µM [15]: 30%; IC50 [16]: 1.08 µM; mortality at 72 h, 1 µM [17]: 100%; IC50 [18]: 1.21 µM; selectivity ratio [19]: 0.22; selectivity ratio [20]: 0.3; IC50 [21]: 3.73 µM; Activity [22]: Active; IC50 [23]: 6.04 µM
19 | COc1cc(NC(=O)c2cc3cc(Nc4nccc(-c5cccnc5)n4)ccc3[nH]2)cc(OC)c1 | 43.6 | 29.7 | 40.8 | 
20 | COc1cc(NC(=O)c2cc3cc(Nc4nccc(-c5cccnc5)n4)ccc3[nH]2)cc(OC)c1OC | 43.6 | 44.6 | 83.3 | 
21 | CCCCNC(=O)c1cc2cc(Nc3nccc(-c4cccnc4)n3)ccc2[nH]1 | 102 | 104 | 107 | 
22 | COc1ccc(NC(=O)c2cc3cc(Nc4nccc(-c5cccnc5)n4)ccc3[nH]2)cc1OC | 91.9 | 74.4 | 109 | 
23 | COc1ccc(NC(=O)c2cc3cc(Nc4nccc(-c5cccnc5)n4)ccc3[nH]2)c(C)c1 | 69 | 54.8 | 82.9 | 
24 | O=C(Nc1cc(Br)ccn1)c1cc2cc(Nc3nccc(-c4cccnc4)n3)ccc2[nH]1 | 81.1 | 115 | 85.9 | 
25 | Cc1ccc(NC(=O)c2cc3cc(Nc4nccc(-c5cccnc5)n4)ccc3[nH]2)c(N)c1 | 38.3 | 29.5 | 36.2 | 
26 | Nc1ccccc1NC(=O)c1cc2cc(Nc3nccc(-c4cccnc4)n3)ccc2[nH]1 | 71.1 | 33.2 | 76.4 | 
